Assay results: ChEMBL document CHEMBL5500332, “Structure-based approaches for the design of 6-aryl-1-(3,4,5-trimethoxyphenyl)-1H-benzo[d][1,2,3]triazoles as tubulin polymerization inhibitors” (Eur J Med Chem, 2024)
The source made the active and inactive calls. The rule behind the calls is not given here.

Legend:
MCF7 [1] = experiment: Induction of apoptosis in human MCF7 cells assessed as early apoptotic cells at 60 nM incubated for 48 hrs by annexin V-FITC and PI staining based flow cytometry analysis (reference value: 2.17%); format: functional
MCF7 [2] = experiment: Inhibition of colony formation in human MCF7 cells measured after 24 hrs by crystal violet staining based analysis; format: functional, cell-based; settings: dose 20-40 nM
MCF7 [3] = experiment: Induction of apoptosis in human MCF7 cells assessed as late apoptotic cells at 20 nM incubated for 48 hrs by annexin V-FITC and PI staining based flow cytometry analysis (reference value: 2.22%); format: functional
MCF7 [4] = experiment: Induction of cell cycle arrest in human MCF7 cells assessed as accumulation of cells at S phase at 40 nM incubated for 24 hrs by PI staining based flow cytometry analysis (reference value: 14.58%); format: functional
MCF7 [5] = experiment: Induction of apoptosis in human MCF7 cells assessed as late apoptotic cells at 60 nM incubated for 48 hrs by annexin V-FITC and PI staining based flow cytometry analysis (reference value: 2.22%); format: functional
MCF7 [6] = experiment: Induction of apoptosis in human MCF7 cells assessed as early apoptotic cells at 40 nM incubated for 48 hrs by annexin V-FITC and PI staining based flow cytometry analysis (reference value: 2.17%); format: functional
Tubulin (Homo sapiens) [7] = molecular target: T1, Tubulin (Homo sapiens) (UniProt P68371+Q9H4B7+P0DPH7+P68366+Q13509+Q71U36+P04350+Q3ZCM7+P07437+P68363+Q9BQE3+Q6PEY2+Q13885+Q9BVA1+Q9BUF5); experiment: Disruption of microtubule network in human MCF7 cells incubated for 24 hrs by immunofluorescence staining based confocal microscopic analysis; format: cell-based
MCF7 [8] = experiment: Induction of cell cycle arrest in human MCF7 cells assessed as accumulation of cells at G2/M phase at 20 nM incubated for 24 hrs by PI staining based flow cytometry analysis (reference value: 14.36%); format: functional
Tubulin (Homo sapiens) [9] = molecular target: T1, Tubulin (Homo sapiens); experiment: Inhibition of tubulin polymerization (unknown origin) measured every 60 secs for 90 mins by microplate reader based analysis; format: protein-complex assay; settings: dose 1-8 µM
MCF7 [10] = experiment: Induction of apoptosis in human MCF7 cells assessed as viable cells at 40 nM incubated for 48 hrs by annexin V-FITC and PI staining based flow cytometry analysis (reference value: 92.4%); format: functional; settings: read-out: Activity
MCF7 [11] = experiment: Induction of cell cycle arrest in human MCF7 cells assessed as accumulation of cells at G2/M phase at 60 nM incubated for 24 hrs by PI staining based flow cytometry analysis (reference value: 14.36%); format: functional
MCF7 [12] = experiment: Induction of cell cycle arrest in human MCF7 cells assessed as accumulation of cells at S phase at 60 nM incubated for 24 hrs by PI staining based flow cytometry analysis (reference value: 14.58%); format: functional
MCF7 [13] = experiment: Inhibition of colony formation in human MCF7 cells at 60 nM measured after 24 hrs by crystal violet staining based analysis relative to control; format: functional
[14] = Toxicity in BALB/c mouse assessed as effect on spleen at 5 to 15 mg/kg, iv measured after 2 weeks by H and E staining based analysis; format: organism-based; settings: in vivo, 336 h, dose 5-15 mg/kg
[15] = Toxicity in BALB/c mouse assessed as effect on heart at 5 to 15 mg/kg, iv measured after 2 weeks by H and E staining based analysis; format: organism-based; settings: in vivo, 336 h, dose 5-15 mg/kg
MCF7 [16] = experiment: Antiproliferative activity against human MCF7 cells measured after 72 hrs by MTT assay; format: functional, cell-based; settings: MCF7, 72 h
MCF7 [17] = experiment: Induction of apoptosis in human MCF7 cells assessed as viable cells at 60 nM incubated for 48 hrs by annexin V-FITC and PI staining based flow cytometry analysis (reference value: 92.4%); format: functional; settings: read-out: Activity
MCF7 [18] = experiment: Induction of cell cycle arrest in human MCF7 cells assessed as accumulation of cells at S phase at 20 nM incubated for 24 hrs by PI staining based flow cytometry analysis (reference value: 14.58%); format: functional
MCF7 [19] = experiment: Induction of cell cycle arrest in human MCF7 cells assessed as accumulation of cells at G0/G1 phase at 40 nM incubated for 24 hrs by PI staining based flow cytometry analysis (reference value: 69.67%); format: functional
[20] = Toxicity in BALB/c mouse assessed as effect on liver at 5 to 15 mg/kg, iv measured after 2 weeks by H and E staining based analysis; format: organism-based; settings: in vivo, 336 h, dose 5-15 mg/kg
MCF7 [21] = experiment: Induction of cell cycle arrest in human MCF7 cells incubated for 24 hrs by PI staining based flow cytometry analysis; format: functional; settings: dose 20-60 nM
[22] = Toxicity in BALB/c mouse assessed as effect on body weight loss at 5 to 15 mg/kg, iv measured after 2 weeks; format: organism-based; settings: in vivo, 336 h, dose 5-15 mg/kg
[23] = Toxicity in BALB/c mouse assessed as effect on kidney at 5 to 15 mg/kg, iv measured after 2 weeks by H and E staining based analysis; format: organism-based; settings: in vivo, 336 h, dose 5-15 mg/kg
A549 = experiment: Antiproliferative activity against human A549 cells measured after 72 hrs by MTT assay; format: functional, cell-based; settings: A549, 72 h
SGC-7901 = experiment: Antiproliferative activity against human SGC-7901 cells measured after 72 hrs by MTT assay; format: functional, cell-based; settings: SGC-7901, 72 h
MCF7 [24] = experiment: Induction of apoptosis in human MCF7 cells incubated for 48 hrs by annexin V-FITC and PI staining based flow cytometry analysis; format: functional, cell-based; settings: dose 20-60 nM
MCF7 [25] = experiment: Induction of apoptosis in human MCF7 cells assessed as necrotic cells at 20 nM incubated for 48 hrs by annexin V-FITC and PI staining based flow cytometry analysis (reference value: 2.25%); format: functional
MCF7 [26] = experiment: Induction of apoptosis in human MCF7 cells assessed as late apoptotic cells at 40 nM incubated for 48 hrs by annexin V-FITC and PI staining based flow cytometry analysis (reference value: 2.22%); format: functional
MCF7 [27] = experiment: Inhibition of cell migration in human MCF7 cells at 20 to 40 nM incubated for 24 hrs by wound healing assay; format: functional, cell-based; settings: dose 20-40 nM
MCF7 [28] = experiment: Induction of apoptosis in human MCF7 cells assessed as early apoptotic cells at 20 nM incubated for 48 hrs by annexin V-FITC and PI staining based flow cytometry analysis (reference value: 2.17%); format: functional
MCF7 [29] = experiment: Induction of cell cycle arrest in human MCF7 cells assessed as accumulation of cells at G0/G1 phase at 20 nM incubated for 24 hrs by PI staining based flow cytometry analysis (reference value: 69.67%); format: functional
[30] = Toxicity in BALB/c mouse assessed as effect on lung at 5 to 15 mg/kg, iv measured after 2 weeks by H and E staining based analysis; format: organism-based; settings: in vivo, 336 h, dose 5-15 mg/kg
MCF7 [31] = experiment: Induction of cell cycle arrest in human MCF7 cells assessed as accumulation of cells at G0/G1 phase at 60 nM incubated for 24 hrs by PI staining based flow cytometry analysis (reference value: 69.67%); format: functional
MCF7 [32] = experiment: Induction of apoptosis in human MCF7 cells assessed as necrotic cells at 40 nM incubated for 48 hrs by annexin V-FITC and PI staining based flow cytometry analysis (reference value: 2.25%); format: functional
4T1 [33] = experiment: Antiproliferative activity against mouse 4T1 cells measured after 72 hrs by MTT assay; format: functional, cell-based; settings: 4T1, 72 h
MCF7 [34] = experiment: Induction of apoptosis in human MCF7 cells assessed as necrotic cells at 60 nM incubated for 48 hrs by annexin V-FITC and PI staining based flow cytometry analysis (reference value: 2.25%); format: functional
4T1 [35] = experiment: Antitumor activity against mouse 4T1 cells xenografted in BALB/c mouse model assessed as tumor growth inhibition rate at 5 mg/kg, iv measured every two days for 2 weeks relative to control; format: functional; settings: 4T1, 336 h, read-out: TGI
MCF7 [36] = experiment: Induction of apoptosis in human MCF7 cells assessed as viable cells at 20 nM incubated for 48 hrs by annexin V-FITC and PI staining based flow cytometry analysis (reference value: 92.4%); format: functional; settings: read-out: Activity
[37] = Toxicity in BALB/c mouse assessed as drug tolerance at 5 to 15 mg/kg, iv measured after 2 weeks; format: organism-based; settings: in vivo, 336 h, dose 5-15 mg/kg
4T1 [38] = experiment: Antitumor activity against mouse 4T1 cells xenografted in BALB/c mouse model assessed as tumor growth inhibition rate at 15 mg/kg, iv measured every two days for 2 weeks relative to control; format: functional; settings: 4T1, 336 h, read-out: TGI
MCF7 [39] = experiment: Induction of cell cycle arrest in human MCF7 cells assessed as accumulation of cells at G2/M phase at 40 nM incubated for 24 hrs by PI staining based flow cytometry analysis (reference value: 14.36%); format: functional

With `COc1ccc(-c2ccc3nnn(-c4cc(OC)c(OC)c(OC)c4)c3c2)cc1O` the Activity (MCF7 [1]) was 26.4%, the inhibition (MCF7 [2]) was “Dose-Dependent Effect” and the Activity (MCF7 [3]) was 8.16%. The Activity (MCF7 [4]) was 34.21%, the Activity (MCF7 [5]) was 10.6% and the Activity (MCF7 [6]) was 24.9%. For the same compound, the Activity (Tubulin (Homo sapiens) [7]) was “Active”, the Activity (MCF7 [8]) was 14.84% and the inhibition (Tubulin (Homo sapiens) [9]) was “Dose-Dependent Effect”. The viability at 0.04 µM (MCF7 [10]) was 62.9%, the Activity (MCF7 [11]) was 50.23% and the Activity (MCF7 [12]) was 21.52%. For the same compound, the inhibition at 0.06 µM (MCF7 [13]) was 100%, the Activity [14] was “Non-Toxic” and the Activity [15] was “Non-Toxic”. For the same compound, the IC50 (MCF7 [16]) was 20 nM, the viability at 0.06 µM (MCF7 [17]) was 60.9% and the Activity (MCF7 [18]) was 22.71%. The Activity (MCF7 [19]) was 38.73%, the Activity [20] was “Non-Toxic” and the Activity (MCF7 [21]) was “Dose-Dependent Effect”. The Activity [22] was “Non-Toxic”, the Activity [23] was “Non-Toxic” and the IC50 (A549) was 45 nM. The IC50 (SGC-7901) was 14 nM, the Activity (MCF7 [24]) was “Dose-Dependent Effect” and the Activity (MCF7 [25]) was 2.8%. The Activity (MCF7 [26]) was 10.1%, the inhibition (MCF7 [27]) was “Active” and the Activity (MCF7 [28]) was 5.47%. For the same compound, the Activity (MCF7 [29]) was 60.54%, the Activity [30] was “Non-Toxic” and the Activity (MCF7 [31]) was 27.42%. The Activity (MCF7 [32]) was 2.07%, the IC50 (4T1 [33]) was 32 nM and the Activity (MCF7 [34]) was 2.05%. The inhibition in vivo at 5 mg/kg (4T1 [35]) was 49.5%, the viability at 0.02 µM (MCF7 [36]) was 83.6% and the Activity [37] was “Non-Toxic”. It also gave an inhibition in vivo at 15 mg/kg (4T1 [38]) of 68.5% and an Activity (MCF7 [39]) of 26.14%.
